Assay results taken from US20260000642A1 (Tay Therapeutics Limited, priority 2022, published 2026).
“And” between values parts separate entries of the source, which are not always exact repeats. Equal values may be shown once.

Tested on: collagen-induced arthritis in Lewis rats
Assay: Collagen-induced arthritis (CIA) model in rats: body weight, paw volume, clinical scores, clinical observations; on Detailed Clinical Scores, left forelimb: key of the grades not given here; on Detailed Clinical Scores, left hind limb: key of the grades not given here; on Detailed Clinical Scores, right forelimb: key of the grades not given here; on Detailed Clinical Scores, right hind limb: key of the grades not given here; on Detailed Clinical Scores, score: key of the grades not given here; on Overall clinical score: key of the grades not given here
Details: for Animal paw volume / Animal body weight percent change: Group 3 (CIA + Dexamethasone); for Animal paw volume: individual animals 1-8; for Animal paw volume percent change (%): individual animals, CIA + reference compound (Groups 3, 4); for Average animal body weight percent change: CIA + compound; for Detailed Clinical Scores, left forelimb / Detailed Clinical Scores, left hind limb / Detailed Clinical Scores, right forelimb / Detailed Clinical Scores, right hind limb / Detailed Clinical Scores, score: per animal ID; for Overall clinical score: individual CIA rats
[1] = CIA rats, daily P.O. for 21 days

C[C@@H]1C[C@H]2[C@@H]3CCC4=CC(=O)C=C[C@]4(C)[C@@]3(F)[C@@H](O)C[C@]2(C)[C@@]1(O)C(=O)CO [dexamethasone]
animals that gained weight by the end of the study (of 8) (CIA rats, day 21 vs day 0, daily P.O. for 21 days): 4/8
diarrhea over the 21-day period [1]: did not have diarrhea
increase in body weight, day 21 compared to day 0 [1]: 1.3%
Animal paw volume (Day 0, L paw): 1.35 mL and 1.31 mL and 1.39 mL and 1.33 mL and 1.30 mL (2×) and 1.34 mL and 1.36 mL
Animal paw volume percent change (%) (Day 0, L paw): 0.00%
Animal paw volume (Day 0, R paw): 1.34 mL and 1.30 mL (2×) and 1.38 mL and 1.35 mL and 1.29 mL and 1.36 mL and 1.37 mL
Animal paw volume percent change (%) (Day 0, R paw): 0.00%
Average animal body weight percent change (Day 0): 0.00%
Detailed Clinical Scores, left forelimb (Day 0, CIA): 0
Detailed Clinical Scores, left hind limb (Day 0, CIA): 0
Detailed Clinical Scores, right forelimb (Day 0, CIA): 0
Detailed Clinical Scores, right hind limb (Day 0, CIA): 0
Detailed Clinical Scores, score (Day 0, CIA): 0
Overall clinical score (Day 0): 0
Average animal body weight percent change (Day 1): −2.80%
Average animal body weight percent change (Day 2): −3.22%
Average animal body weight percent change (Day 3): −4.37%
Average animal body weight percent change (Day 4): −4.95%
Average animal body weight percent change (Day 5): −4.95%
Animal paw volume (Day 6, L paw): 1.31 mL and 1.29 mL (3×) and 1.34 mL and 1.28 mL
Animal paw volume percent change (%) (Day 6, L paw): −2.97% and −1.53% and −3.61% and −3.02% and −3.09% and −3.08% and −4.12% and −5.51%
Animal paw volume (Day 6, R paw): 1.30 mL (3×) and 1.28 mL (2×) and 1.34 mL and 1.27 mL
Animal paw volume percent change (%) (Day 6, R paw): −3.00% and −1.16% and 2.91% and −1.56% and 12.70% and −5.90% and −5.13%
Average animal body weight percent change (Day 6): −4.41%
Detailed Clinical Scores, left forelimb (Day 6, CIA): 0
Detailed Clinical Scores, left hind limb (Day 6, CIA): 0
Detailed Clinical Scores, right forelimb (Day 6, CIA): 0
Detailed Clinical Scores, right hind limb (Day 6, CIA): 0
Detailed Clinical Scores, score (Day 6, CIA): 0
Overall clinical score (Day 6): 0
Average animal body weight percent change (Day 7): −3.35%
Average animal body weight percent change (Day 8): −3.90%
Average animal body weight percent change (Day 9): −1.84%
Average animal body weight percent change (Day 10): −2.30%
Average animal body weight percent change (Day 11): −1.24%
Animal paw volume (Day 12, L paw): 1.37 mL and 1.28 mL (2×) and 1.30 mL and 1.29 mL
Animal paw volume percent change (%) (Day 12, L paw): −10.41% and −7.66% and −1.44% and −3.40% and −1.54% and −6.54% and −3.00% and −5.51%
Animal paw volume (Day 12, R paw): 1.37 mL and 1.27 mL and 1.29 mL
Animal paw volume percent change (%) (Day 12, R paw): −6.74% and −3.09% and −0.73% and −7.43% and −1.56% and −9.27% and −7.01% and −5.86%
Average animal body weight percent change (Day 12): −1.18%
Detailed Clinical Scores, left forelimb (Day 12, CIA): 0
Detailed Clinical Scores, left hind limb (Day 12, CIA): 0
Detailed Clinical Scores, right forelimb (Day 12, CIA): 0
Detailed Clinical Scores, right hind limb (Day 12, CIA): 0
Detailed Clinical Scores, score (Day 12, CIA): 0
Overall clinical score (Day 12): 0
Animal paw volume (Day 13, L paw): 1.40 mL and 1.29 mL (2×) and 1.30 mL and 1.31 mL
Animal paw volume percent change (%) (Day 13, L paw): −8.92% and −5.36% and 0.72% and −3.02% and 0.00% and −4.23% and −2.25% and −5.51%
Animal paw volume (Day 13, R paw): 1.27 mL and 1.38 mL and 1.28 mL and 1.31 mL and 1.29 mL
Animal paw volume percent change (%) (Day 13, R paw): −5.99% and −2.32% and 0.36% and −7.43% and −0.78% and −6.95% and −3.69% and −5.86%
Average animal body weight percent change (Day 13): −0.91%
Detailed Clinical Scores, left forelimb (Day 13, CIA): 0
Detailed Clinical Scores, left hind limb (Day 13, CIA): 0
Detailed Clinical Scores, right forelimb (Day 13, CIA): 0
Detailed Clinical Scores, right hind limb (Day 13, CIA): 0
Detailed Clinical Scores, score (Day 13, CIA): 0
Overall clinical score (Day 13): 0
Animal paw volume (Day 14, L paw): 1.39 mL and 1.27 mL and 1.28 mL and 1.29 mL
Animal paw volume percent change (%) (Day 14, L paw): −8.18% and −5.36% and 0.00% and −4.53% and −1.54% and −5.00% and −3.75% and −8.46%
Animal paw volume (Day 14, R paw): 1.38 mL and 1.29 mL
Animal paw volume percent change (%) (Day 14, R paw): −5.62% and −2.70% and 0.00% and −8.92% and −2.33% and −7.72% and −5.17% and −8.06%
Average animal body weight percent change (Day 14): −1.24%
Detailed Clinical Scores, left forelimb (Day 14, CIA): 0
Detailed Clinical Scores, left hind limb (Day 14, CIA): 0
Detailed Clinical Scores, right forelimb (Day 14, CIA): 0
Detailed Clinical Scores, right hind limb (Day 14, CIA): 0
Detailed Clinical Scores, score (Day 14, CIA): 0
Overall clinical score (Day 14): 0
Animal paw volume (Day 15, L paw): 1.36 mL and 1.28 mL and 1.33 mL and 1.27 mL
Animal paw volume percent change (%) (Day 15, L paw): −8.92% and −7.28% and −2.17%
Animal paw volume (Day 15, R paw): 1.36 mL and 1.27 mL (2×) and 1.32 mL
Animal paw volume percent change (%) (Day 15, R paw): −6.74% and −4.25% and −1.45%
Average animal body weight percent change (Day 15): 0.43%
Detailed Clinical Scores, left forelimb (Day 15, CIA): 0
Detailed Clinical Scores, left hind limb (Day 15, CIA): 0
Detailed Clinical Scores, right forelimb (Day 15, CIA): 0
Detailed Clinical Scores, right hind limb (Day 15, CIA): 0
Detailed Clinical Scores, score (Day 15, CIA): 0
Overall clinical score (Day 15): 0
Average animal body weight percent change (Day 16): −0.57%
Average animal body weight percent change (Day 17): 0.62%
Animal paw volume (Day 18, L paw): 1.28 mL and 1.45 mL and 1.31 mL and 1.29 mL and 1.34 mL and 1.30 mL
Animal paw volume percent change (%) (Day 18, L paw): −5.20% and −6.51% and 4.33%
Animal paw volume (Day 18, R paw): 1.28 mL and 1.44 mL and 1.31 mL and 1.29 mL (2×) and 1.34 mL
Animal paw volume percent change (%) (Day 18, R paw): −4.49% and −4.63% and 4.36%
Average animal body weight percent change (Day 18): 1.02%
Detailed Clinical Scores, left forelimb (Day 18, CIA rats): 0
Detailed Clinical Scores, left hind limb (Day 18, CIA rats): 0
Detailed Clinical Scores, right forelimb (Day 18, CIA rats): 0
Detailed Clinical Scores, right hind limb (Day 18, CIA rats): 0
Detailed Clinical Scores, score (Day 18, CIA rats): 0
Overall clinical score (Day 18): 0
Animal paw volume (Day 19, L paw): 1.28 mL (2×) and 1.44 mL and 1.30 mL (2×) and 1.33 mL
Animal paw volume percent change (%) (Day 19, L paw): −5.20% and −6.90% and 3.61%
Animal paw volume (Day 19, R paw): 1.27 mL (2×) and 1.44 mL and 1.31 mL and 1.32 mL and 1.30 mL
Animal paw volume percent change (%) (Day 19, R paw): −5.24% and −6.18%
Average animal body weight percent change (Day 19): 1.53%
Detailed Clinical Scores, left forelimb (Day 19, CIA rats): 0
Detailed Clinical Scores, left hind limb (Day 19, CIA rats): 0
Detailed Clinical Scores, right forelimb (Day 19, CIA rats): 0
Detailed Clinical Scores, right hind limb (Day 19, CIA rats): 0
Detailed Clinical Scores, score (Day 19, CIA rats): 0
Overall clinical score (Day 19): 0
Average animal body weight percent change (Day 20): 1.66%
Animal paw volume (Day 21, L paw): 1.43 mL and 1.31 mL (2×) and 1.30 mL (2×)
Animal paw volume percent change (%) (Day 21, L paw): −6.32% and −6.90%
Animal paw volume (Day 21, R paw): 1.43 mL and 1.31 mL and 1.30 mL (2×) and 1.32 mL
Animal paw volume percent change (%) (Day 21, R paw): −5.99% and −6.18%
Average animal body weight percent change (Day 21): 1.30%
Detailed Clinical Scores, left forelimb (Day 21, CIA rats): 0
Detailed Clinical Scores, left hind limb (Day 21, CIA rats): 0
Detailed Clinical Scores, right forelimb (Day 21, CIA rats): 0
Detailed Clinical Scores, right hind limb (Day 21, CIA rats): 0
Detailed Clinical Scores, score (Day 21, CIA rats): 0
Overall clinical score (Day 21): 0
Animal body weight percent change (Day 0, individual animals): 0.00%
Animal body weight percent change (Day 1, individual animals): 0.66% and −7.41% and −1.72% and −2.37% and −1.20% and −6.21%
Animal body weight percent change (Day 2, individual animals): −0.66% and −6.79% and 1.15% and −1.78% and −3.01% and −8.07%
Animal body weight percent change (Day 3, individual animals): −1.99% and −11.11% and 0.57% and −2.96% and −2.41% and −9.94%
Animal body weight percent change (Day 4, individual animals): −2.65% and −9.26% and −2.30% and −5.33% and −6.02%
Animal body weight percent change (Day 5, individual animals): −2.65% and −8.02% and −5.17% and −2.96% and −4.82%
Animal body weight percent change (Day 6, individual animals): −2.65% and −6.17% and −1.72% and −4.73% and −6.63%
Animal body weight percent change (Day 7, individual animals): −0.66% and −5.56% and 2.30% and −4.14% and −3.61%
Animal body weight percent change (Day 15, individual animals): 9.93% and −3.09% and 2.30% and 0.59% and −1.20% and −6.83% and 2.33% and −0.63%
Animal body weight percent change (Day 16, individual animals): 3.97% and −5.56% and 7.47% and −0.59% and −4.22% and −8.70% and 1.16% and 1.88%
Animal body weight percent change (Day 17, individual animals): 5.96% and −4.32% and 8.05% and −2.37% and 0.60% and −6.83% and −1.16% and 5.00%
Animal body weight percent change (Day 18, individual animals): 3.97% and −6.17% and 8.62% and −2.37% and 0.00% and −5.59% and 4.07% and 5.63%
Animal body weight percent change (Day 19, individual animals): 7.28% and −9.26% and 10.34% and 0.59% and 1.20% and −5.59% and 5.81% and 1.88%
Animal body weight percent change (Day 20, individual animals): 7.95% and −3.70% and 5.75% and 2.37% and 0.60% and −4.35% and 4.65% and 0.00%
Animal body weight percent change (Day 21, individual animals): 8.61% and −3.70% and 7.47% and 0.00% and −3.01% and −5.59% and 2.91% and 3.75%
